# Test results reported in patent publication US12662498B2 (priority 2017, dated 2026).
# Test: ICH stability study of psilocybin batches (appearance, water content, purity, assay)
# Conditions: for Chemical Purity By HPLC / Total Impurities / Water content by loss on drying: listed as GM764B
compound,measurement,setting,value
CN(C)CCc1c[nH]c2cccc(OP(=O)(O)O)c12 [Batch GM764B],Appearance,T = 0,An off white solid.
same,Assay by 1H-NMR,T = 0,97% ^w/w % w/w
same,Impurities by HPLC: RRT 0.86,T = 0,0.05%
same,Impurities by HPLC: RRT 1.46,T = 0,0.05%
same,Impurities by HPLC: RRT 1.59 (Psilocin),T = 0,0.37%
same,Chemical Purity By HPLC,T = 0,99.24%
same,Total Impurities,T = 0,0.76%
same,Water content by loss on drying,T = 0,0.86% ^w/w % w/w
same,Appearance,"T = 1 month, 2-8° C.",An off white solid.
same,Assay by 1H-NMR,"T = 1 month, 2-8° C.",99% ^w/w % w/w
same,Impurities by HPLC: RRT 0.86,"T = 1 month, 2-8° C.",0.05%
same,Impurities by HPLC: RRT 1.46,"T = 1 month, 2-8° C.",0.09%
same,Impurities by HPLC: RRT 1.59 (Psilocin),"T = 1 month, 2-8° C.",0.35%
same,Chemical Purity By HPLC,"T = 1 month, 2-8° C.",99.24%
same,Total Impurities,"T = 1 month, 2-8° C.",0.76%
same,Water content by loss on drying,"T = 1 month, 2-8° C.",0.35% ^w/w % w/w
same,Appearance,"T = 1 month, 25° C./60% RH",An off white solid.
same,Assay by 1H-NMR,"T = 1 month, 25° C./60% RH",98% ^w/w % w/w
same,Impurities by HPLC: RRT 0.86,"T = 1 month, 25° C./60% RH",0.05%
same,Impurities by HPLC: RRT 1.46,"T = 1 month, 25° C./60% RH",0.10%
same,Impurities by HPLC: RRT 1.59 (Psilocin),"T = 1 month, 25° C./60% RH",0.34%
same,Chemical Purity By HPLC,"T = 1 month, 25° C./60% RH",99.22%
same,Total Impurities,"T = 1 month, 25° C./60% RH",0.78%
same,Water content by loss on drying,"T = 1 month, 25° C./60% RH",0.20% ^w/w % w/w
same,Appearance,"T = 1 month, 40° C./75% RH",An off white solid.
same,Assay by 1H-NMR,"T = 1 month, 40° C./75% RH",96% ^w/w % w/w
same,Impurities by HPLC: RRT 0.86,"T = 1 month, 40° C./75% RH",0.05%
same,Impurities by HPLC: RRT 1.46,"T = 1 month, 40° C./75% RH",0.10%
same,Impurities by HPLC: RRT 1.59 (Psilocin),"T = 1 month, 40° C./75% RH",0.34%
same,Chemical Purity By HPLC,"T = 1 month, 40° C./75% RH",99.23%
same,Total Impurities,"T = 1 month, 40° C./75% RH",0.77%
same,Water content by loss on drying,"T = 1 month, 40° C./75% RH",0.14% ^w/w % w/w
same,Appearance,"T = 3 months, 2-8° C.",An off white solid.
same,Assay by 1H-NMR,"T = 3 months, 2-8° C.",97% ^w/w % w/w
same,Impurities by HPLC: RRT 0.86,"T = 3 months, 2-8° C.",< 0.05%
same,Impurities by HPLC: RRT 1.46,"T = 3 months, 2-8° C.",0.10%
same,Impurities by HPLC: RRT 1.59 (Psilocin),"T = 3 months, 2-8° C.",0.37%
same,Chemical Purity By HPLC,"T = 3 months, 2-8° C.",99.31%
same,Total Impurities,"T = 3 months, 2-8° C.",0.69%
same,Water content by loss on drying,"T = 3 months, 2-8° C.",0.26% ^w/w % w/w
same,Appearance,"T = 3 months, 25° C./60% RH",An off white solid.
same,Assay by 1H-NMR,"T = 3 months, 25° C./60% RH",99% ^w/w % w/w
same,Impurities by HPLC: RRT 0.86,"T = 3 months, 25° C./60% RH",< 0.05%
same,Impurities by HPLC: RRT 1.46,"T = 3 months, 25° C./60% RH",0.09%
same,Impurities by HPLC: RRT 1.59 (Psilocin),"T = 3 months, 25° C./60% RH",0.36%
same,Chemical Purity By HPLC,"T = 3 months, 25° C./60% RH",99.27%
same,Total Impurities,"T = 3 months, 25° C./60% RH",0.73%
same,Water content by loss on drying,"T = 3 months, 25° C./60% RH",0.08% ^w/w % w/w
same,Appearance,"T = 3 months, 40° C./75% RH",An off white solid.
same,Assay by 1H-NMR,"T = 3 months, 40° C./75% RH",97% ^w/w % w/w
same,Impurities by HPLC: RRT 0.86,"T = 3 months, 40° C./75% RH",< 0.05%
same,Impurities by HPLC: RRT 1.46,"T = 3 months, 40° C./75% RH",0.10%
same,Impurities by HPLC: RRT 1.59 (Psilocin),"T = 3 months, 40° C./75% RH",0.37%
same,Chemical Purity By HPLC,"T = 3 months, 40° C./75% RH",99.26%
same,Total Impurities,"T = 3 months, 40° C./75% RH",0.74%
same,Water content by loss on drying,"T = 3 months, 40° C./75% RH",0.14% ^w/w % w/w
